Consider 3 compounds from paper PMC9394307, “Discovery of Putative Dual Inhibitor of Tubulin and EGFR by Phenotypic Approach on LASSBio-1586 Homologs” (Pharmaceuticals, 2022).

The structures appear in SMILES notation. Values joined by “and” are separate entries in the source; they are usually repeats but may differ in a detail not shown here. Identical values can stand only once. Like-named read-outs stand apart in the source and are kept apart here.

Usually CC50 stands for the concentration at which the toxic effect on the cells reaches its halfway point. As usually defined, the melting point is the temperature of the solid-liquid transition.

One data set concerns MCF-7. Description: MTT cell viability assay, MCF-7. It is filed as cell-based, human. The conditions noted are these: Homo sapiens, MCF7, 72 h, read-out: CC50 (µM) (CI) MCF-7. The protocol:
(§1) The cytotoxic activity of compounds 3–13 was determined based on an MTT assay against different human tumor cell lines, using LASSBio-1586 (2), LASSBio-1735 (3), CA-4 (1) and pelitinib as standards (Table 2). To determine the cytotoxic selectivity index, compounds were also evaluated toward human lymphocytes (Table 3).
(§2) The target compounds were tested (0.0001–100 µM) for cytotoxic activity against selected human cancer cell lines, such as HL-60 (acute promyelocytic leukemia), MCF-7 (mammary adenocarcinoma), PC-3 (prostate adenocarcinoma), H1975 (non-small cell lung cancer—EGFR^L858R+T790M), PC-9 (non-small cell lung cancer—EGFR^L858R) H292 (mucoepidermoid pulmonary carcinoma—EGFR wild type), LoVo (colorectal adenocarcinoma—EGFRwild type) and GM16000 (lymphocyte). All the human cancer cell lines were purchased from Cell Bank of Rio de Janeiro—BCRJ. They were cultured in RPMI 1640 medium with 10% (v/v) FBS, 2 mM glutamine, at 37 °C in a humidified incubator containing 5% CO2.
(§3) The cytotoxicity of the compounds was evaluated by the MTT assay. The cell lines were cultured in 96 well plates for 72 h with a density of 0.1 × 10^5 cells/mL to 0.7 × 10^5 cells/mL to adherent cell lines. For lymphocytic lines, a density of 0.3 × 10^6 cells/mL was used. Afterwards they were treated with varying concentrations of the target compounds 2–12 (0.0001–100 µM), CA-4 (1) and pelitinib at 37 °C, in triplicate. The medium was incubated with 20 μL of 5 mg/mL MTT solution for 3 h in a humidified incubator containing 5% CO2 [11].
(§4) The purple-colored formazan crystals formed in the wells were dissolved in DMSO and their absorbance was measured at 595 nm with a microplate reader (SpectraMax M5, Molecular Devices).

A further data set concerns H292. Description: MTT cell viability assay, H292. The following applies: read-out: CC50 (µM) (CI) H292. The class given is cell-based, human. On the procedure:
as §1, §2
(§5) The cytotoxicity of the compounds was evaluated by the MTT assay. […] For lymphocytic lines, a density of 0.3 × 10^6 cells/mL was used. Afterwards they were treated with varying concentrations of the target compounds 2–12 (0.0001–100 µM), CA-4 (1) and pelitinib at 37 °C, in triplicate. The medium was incubated with 20 μL of 5 mg/mL MTT solution for 3 h in a humidified incubator containing 5% CO2 [11].
as §4
In general terms: Formazan colour is commonly taken as a measure of viable cells.

Data set [1] relates to H1975 cells. Description: Immunofluorescence of β-tubulin / microtubules. It is filed as cell-based, human. The following applies: H1975, 48 h; CA-4 0.3 µM, vincristine 0.5 µM, taxol 0.1 µM, LASSBio-1586 10 µM, LASSBio-1735 0.5 µM, LASSBio-2070 4.5 µM, LASSBio-2074 20 µM. On the procedure:
Antitubulin agents have been broadly classified into destabilizing or stabilizing agents, based on their interference with the dynamic balance of polymerization or depolymerization of microtubules. […] CA-4 (1, 0.3 µM), vincristine (0.5 µM) and taxol (0.1 µM) were used as standard controls.
After incubation, cells were rinsed with PBS and fixed with 4% paraformaldehyde in PBS for 10 min at room temperature. They were then permeabilized with 0.5% Triton-X 100 in PBS 3 times for 10 min. The same solution was used for all subsequent washing steps. Cells were incubated with an anti-beta-tubulin antibody for 1 h at 37 °C. After incubation, cells were washed for 30 min and incubated with Alexa Fluor® 488, conjugated secondary antibody for 1 h at 37 °C, and nuclei were labeled with DAPI (0.1 mg/mL in 0.9% NaCl).
Live cultured cells grown in coverslips were mounted in Prolong Gold solution (Molecular Probes, USA) and were imaged on a Leica TCS SPE confocal microscope (Leica Microsystems, Germany) using 63x 1.3 N.A. oil immersion and the images acquired by the LAS X software. Cell morphology, focusing on the microtubules was analyzed, qualitatively, using the public domain NIH ImageJ Program (developed at the National Institutes of the USA Health and available on the internet at http://imagej.nih.gov/ij/ (accessed on 1 September 2021).

Data set [2] in a line: MTT cell viability assay, GM16000 lymphocytes. The class given is cell-based. The following applies: human lymphocytes, value (95% CI).
The test system of the next data set is PC-3. The data set can be described thus: MTT cell viability assay, PC-3. It is filed as cell-based. The conditions noted are these: Homo sapiens, read-out: CC50 (µM) (CI) PC-3. On the procedure: as §1, §2, §3, §4
The nature of data set [3]: MTT cell viability assay, GM16000 lymphocytes. The class given is cell-based. The conditions noted are these: human lymphocytes, value (95% CI). On the procedure: as §1
To establish the cytotoxic selective index (SI) of LASSBio-1586 homologs, they were studied on human lymphocyte cell lines (GM16000), using the MTT assay. The SI was calculated by the ratio between the CC50 on tumor and non-tumor cell lines. Although there is no consensus, values of SI ≥ 10 is considered satisfactory to assign safety to a new cytotoxic agent. This value means that the compound is more than ten times more cytotoxic to the tumor cell line than to normal cell line.
as §2, §3, §4
The source holds these as a separate data set.

Data set [4] concerns H1975 cells. Description: Cell cycle analysis by flow cytometry (Guava Muse Cell Cycle Kit). It is filed as cell-based, human. The following applies: H1975, 48 h of treatment; CA-4 0.04 µM, LASSBio-1586 2.0 µM, LASSBio-1735 0.08 µM, LASSBio-2070 3.0 µM, LASSBio-2074 1.5 µM; vs DMSO 0.1%. The protocol: Changes in the cell cycle are important aspect in tumorigenesis. Therefore, the identification of the steps related to inhibition of cell multiplication is an important process during the discovery of new antitumoral drug candidates. […] Flow cytometry was used for cell cycle analysis to estimate the percentages of a cell population in the different phases of the cell cycle. The analysis was performed using the lung cancer cell line H1975 treated with CA-4 (1, 0.04 µM), LASSBio-1586 (2, 2.0 µM), LASSBio-1735 (3, 0.08 µM), LASSBio-2070 (10, 3.0 µM) and LASSBio-2074 (11, 1.5 µM).
(§6) Flow cytometry was applied to help elucidate the mechanism of action of the studied compounds, both to verify the cell cycle phase and to verify the action on EGFR protein kinase.
The anti-tubulin effect was evaluated by seeding H1975, H292 and PC-9 into 6-well plates at a density of 2 × 10^5 per well. […] Cells were harvested and stained according to the protocols of The Guava Muse® Cell Cycle Kit (MCH100106) to quantitatively measure the percentage of cells in the G2/M phases of the cell cycle and the EGFR-RTK Activation Dual Detection Kit (MCH200102) (Luminex®) to measure EGFR phosphorylation in relation to total EGFR expression in the cell population, according to the manufacturer’s instructions for use in test kits using a Guava Muse® Cell Analyzer (Luminex®). Each experiment was performed at least three times independently.

For another data set, the system named is PC-9. The data set can be described thus: MTT cell viability assay, PC-9. It is filed as cell-based, human. The conditions noted are these: read-out: CC50 (µM) (CI) PC-9. On the procedure: as §1, §2, §5, §4
The subject of data set [5] is LoVo. Description: MTT cell viability assay, LoVo. It is filed as cell-based. The following applies: Homo sapiens, read-out: CC50 (µM) (CI) LoVo. The protocol:
as §1, §2, §3, §4

The test system of the next data set is HL-60. The data set can be described thus: MTT cell viability assay, HL-60. It is filed as cell-based, human. The conditions noted are these: Homo sapiens, read-out: CC50 (µM) (CI) HL-60. On the procedure: as §1, §2, §5, §4
In the next data set the test system is H1975. Description: MTT cell viability assay, H1975. It is filed as cell-based, human. The following applies: read-out: CC50 (µM) (CI) H1975. On the procedure: as §1, §2, §5, §4
The test system of data set [6] is EGFR in PC-9 cell line (EGFR^L858R). The data set can be described thus: Guava Muse EGFR-RTK Activation Dual Detection Kit, flow cytometry. The class given is cell-based, human. The protocol: as §6
The anti-tubulin effect was evaluated by seeding H1975, H292 and PC-9 into 6-well plates at a density of 2 × 10^5 per well. The cells were treated with the selected compounds for 72 h. Cells were harvested and stained according to the protocols of The Guava Muse® Cell Cycle Kit (MCH100106) to quantitatively measure the percentage of cells in the G2/M phases of the cell cycle and the EGFR-RTK Activation Dual Detection Kit (MCH200102) (Luminex®) to measure EGFR phosphorylation in relation to total EGFR expression in the cell population, according to the manufacturer’s instructions for use in test kits using a Guava Muse® Cell Analyzer (Luminex®). Each experiment was performed at least three times independently.

The subject of data set [7] is LoVo. Description: MTT cell viability assay, LoVo. The class given is cell-based. The following applies: Homo sapiens, 48 h, value (95% CI).
The mark [8] stands for this setting: GM16000 lymphocyte cells (non-tumor).

As to `COc1ccc(/C=C\c2cc(OC)c(OC)c(OC)c2)cc1O` [CA-4 (1), Combretastatin A-4, reference compound], the CC50 with MCF-7 was found to be 8.58 µM; in the data set with H292 (Homo sapiens, NCI-H292, 48 h) it was 0.091 µM; in the data set with H292 (Homo sapiens, NCI-H292, 72 h), 0.013 µM; with PC-3 (PC-3, 72 h) it was 0.096 µM; in the data set with PC-9 (Homo sapiens, PC-9, 48 h), 0.025 µM; with PC-9 (Homo sapiens, PC-9, 72 h), 0.01 µM. Also, the CC50 with LoVo [5] (48 h) amounted to 0.179 µM; in the data set on LoVo [5] (72 h) it was 0.039 µM; with HL-60 (HL-60, 48 h), 1.3 µM; in the data set with HL-60 (HL-60, 72 h) it was 0.077 µM; in the data set with H1975 (Homo sapiens, NCI-H1975, 48 h), 0.058 µM; in the data set with H1975 (Homo sapiens, NCI-H1975, 72 h), 0.035 µM. Besides, the “cell morphology after treatment” value in the data set with H1975 cells [1] is listed as “rounded shape”. Also, the “effect on microtubules (stabilizing / destabilizing profile)” value in the data set on H1975 cells [1] was “typical response of microtubule destabilizing agents”. The same compound gave a 50% cytotoxic concentration (CC50) at 48 h in data set [2] of 0.016 µM. Moreover, the CC50 at 72 h in data set [3] is 0.064 µM. Also, the “cell cycle distribution (G0/G1, S, G2/M)” value in the data set with H1975 cells [4] is given as “increased cells in phase G2/M”.
Take `C=CC(=O)Nc1cc(Nc2nccc(-c3cn(C)c4ccccc34)n2)c(OC)cc1N(C)CCN(C)C` [Osimertinib, reference compound]: the “cells with Inactivated EGFR (EGFR inactivation index)” value in data set [6] stood at 30%.
For `CCN(/N=C/c1ccccc1)C(=O)c1cc(OC)c(OC)c(OC)c1` [LASSBio-2071 (4), (E)-N’-benzylidene-N-ethyl-3,4,5-trimethoxybenzohydrazide], the melting point is 83.94 °C and 83 to 84 °C. Besides, in the data set with MCF-7 (MTT, 72 h, value (95% CI)), the CC50 came to 1.24 µM. The CC50 in the data set on H292 (Homo sapiens, NCI-H292, 72 h, MTT, 72 h, value (95% CI)) was found to be 2.55 µM. Also, in the data set with H292 (MTT, 48 h, value (95% CI)), the CC50 was 0.3 µM. In [2] (setting [8]), this compound displayed a CC50 at 48 h of 2 µM. Also, in the data set with PC-3 (PC-3, MTT, 72 h, value (95% CI)), the CC50 came out at 1.66 µM. The CC50 with LoVo [7] is 3.05 µM. The compound also displayed a CC50 at 72 h in [3] (setting [8]) of 5.13 µM. Also, in the data set with PC-9 (Homo sapiens, PC-9, 72 h, MTT, 72 h, value (95% CI)), the CC50 came out at 0.384 µM. In the data set on PC-9 (MTT, 48 h, value (95% CI)), the CC50 is 0.881 µM. Moreover, the CC50 in the data set with LoVo [5] (MTT, 72 h, value (95% CI)) came out at 0.301 µM. In the data set on HL-60 (HL-60, 48 h, MTT, 48 h, value (95% CI)), the CC50 was 6.03 µM. In the data set with HL-60 (HL-60, 72 h, MTT, 72 h, value (95% CI)), the CC50 came to 0.231 µM. Further, the CC50 in the data set on H1975 (Homo sapiens, NCI-H1975, 72 h, MTT, 72 h, value (95% CI)) amounted to 4.86 µM. The CC50 in the data set with H1975 (MTT, 48 h, value (95% CI)) amounted to 4.91 µM.
